Where two headings read alike, the source gives them in different places.
Tests used:
[1] = system: E. coli EV36 (K1:K-12 hybrid strain); assay: T7 phage counter assay; type: cell-based, Escherichia coli; conditions: average of at least 3 replicates ± SEM
Protocol: This secondary assay was performed as previously described and was used to distinguish compounds with phage inhibitory effects from true polysaccharide capsule inhibitors. […] Thus, the presence of a capsule inhibits T7-mediated lysis. In this assay, an increase in phage-induced lysis correlates to a decrease in capsule formation. […]. […] The positive control molecule C7 (100 µM final well concentration) was used in this screen.

[2] = system: E. coli strains 536 (K15), CFT073 (K2), DS17 (K5), UTI89 (K1); assay: Visualization of capsule using Alcian blue staining; type: cell-based, Escherichia coli; conditions: 200 µM
E. coli UTI89 [3] = assay: Human serum sensitization (MTT); type: cell-based, Escherichia coli; conditions: 50 µM, pooled human serum, vs DMSO p = 0.0067
[4] = type: physicochemical
Protocol: SI2-Supporting Information- Goller et al.
Experimental procedures for aqueous and LB medium solubility, hepatic microsome stability, PAMPA permeability, and plasma stability
Aqueous and LB Medium Solubility: Solubility analysis was performed using a direct UV kinetic solubility method in a 96-well format. All liquid dispense and transfer steps were performed with the Freedom Evo automated liquid handler (Tecan US). Solubility measurements were performed in buffer solution (PBS (pH 7.4) or LB medium), in duplicate. Samples were incubated at room temperature for a minimum of 18 hrs to achieve equilibrium, then filtered (filter plate, pION Inc, P/N 110322) to remove any precipitate formed. The concentration of the compounds was measured by UV absorbance (250-498 nm) using the Infinite M200 (Tecan US) and compared to the spectra of the precipitation-free reference solutions. Spectroscopically pure 1-Propanol (Sigma P/N 256404) was used as a cosolvent to suppress precipitation in the reference solutions.
The solubility of each compound was determined using µSOL Evolution Plus software v3.2 (pION Inc) and is expressed as the concentration (µg/mL) of a solute in a saturated solution. […]
Hepatic Microsome Stability: Metabolic stability was assessed in the presence of human liver microsomes (XenoTech, P/N H0630) and mouse liver microsomes (XenoTech, P/N M1000). […]

Adenosine A1 = target: T1, Adenosine A1 (Homo sapiens, UniProt P30542); assay: Radioligand binding 200510; conditions: 10 µM
T1 construct: host or cells: CHO cells

Adenosine A3 = Adenosine A3 (Homo sapiens, UniProt P0DMS8); type: binding; conditions: 10 µM
[5] = target: T2, Androgen (Testosterone) AR (Rattus norvegicus, UniProt P15207); type: binding; conditions: 10 µM
T2 construct: Eurofins Panlabs (assay Cat #) 285010; host or cells: E. coli

[6] = target: Calcium Channel L-Type, Benzothiazepine (Rattus norvegicus, UniProt P22002); type: binding; conditions: 10 µM
Cannabinoid CB1 = Cannabinoid CB1 (Homo sapiens, UniProt P21554); type: binding; conditions: 10 µM
Dopamine D3 = target: T3, Dopamine D3 (Homo sapiens, UniProt P35462); type: binding; conditions: 10 µM
T3 construct: host or cells: CHO cells

Endothelin ETB = target: T4, Endothelin ETB (Homo sapiens, UniProt P24530); type: binding; conditions: 10 µM
T4 construct: host or cells: CHO-K1 cells

Imidazoline I2, Central = assay: Radioligand binding 241000; parameters: species or system rat; conditions: 10 µM
[7] = target: T5, Platelet Activating Factor (PAF) (Homo sapiens, UniProt P25105); type: binding; conditions: 10 µM
T5 construct: Human platelets; host or cells: human platelets

Potassium Channel [KATP] = target: T6, Potassium Channel [KATP] (Cricetus cricetus, UniProt Q09427); type: binding, hamster; conditions: 10 µM
T6 construct: Hamster pancreatic HIT-T15 beta; host or cells: HIT-T15 hamster pancreatic beta cells

Rolipram = assay: Radioligand binding 270000; parameters: species or system rat; conditions: 10 µM
Tachykinin NK1 = target: T7, Tachykinin NK1 (Homo sapiens, UniProt P25103); assay: Radioligand binding 255520; conditions: 10 µM
T7 construct: host or cells: CHO

E. coli UTI89 [8] = system: E. coli UTI89
[9] = target: Serotonin (5-Hydroxytryptamine) 5-HT3 (Homo sapiens, UniProt P46098); type: binding; parameters: host or cells: HEK-293; conditions: 10 µM
Bradykinin B2 = Bradykinin B2 (Homo sapiens, UniProt P30411); type: binding; parameters: host or cells: Chem-1 cells; conditions: 10 µM
[10] = pre-treatment of bacteria without pretreatment of the mice

T6 sequence (Q09427 whole entry): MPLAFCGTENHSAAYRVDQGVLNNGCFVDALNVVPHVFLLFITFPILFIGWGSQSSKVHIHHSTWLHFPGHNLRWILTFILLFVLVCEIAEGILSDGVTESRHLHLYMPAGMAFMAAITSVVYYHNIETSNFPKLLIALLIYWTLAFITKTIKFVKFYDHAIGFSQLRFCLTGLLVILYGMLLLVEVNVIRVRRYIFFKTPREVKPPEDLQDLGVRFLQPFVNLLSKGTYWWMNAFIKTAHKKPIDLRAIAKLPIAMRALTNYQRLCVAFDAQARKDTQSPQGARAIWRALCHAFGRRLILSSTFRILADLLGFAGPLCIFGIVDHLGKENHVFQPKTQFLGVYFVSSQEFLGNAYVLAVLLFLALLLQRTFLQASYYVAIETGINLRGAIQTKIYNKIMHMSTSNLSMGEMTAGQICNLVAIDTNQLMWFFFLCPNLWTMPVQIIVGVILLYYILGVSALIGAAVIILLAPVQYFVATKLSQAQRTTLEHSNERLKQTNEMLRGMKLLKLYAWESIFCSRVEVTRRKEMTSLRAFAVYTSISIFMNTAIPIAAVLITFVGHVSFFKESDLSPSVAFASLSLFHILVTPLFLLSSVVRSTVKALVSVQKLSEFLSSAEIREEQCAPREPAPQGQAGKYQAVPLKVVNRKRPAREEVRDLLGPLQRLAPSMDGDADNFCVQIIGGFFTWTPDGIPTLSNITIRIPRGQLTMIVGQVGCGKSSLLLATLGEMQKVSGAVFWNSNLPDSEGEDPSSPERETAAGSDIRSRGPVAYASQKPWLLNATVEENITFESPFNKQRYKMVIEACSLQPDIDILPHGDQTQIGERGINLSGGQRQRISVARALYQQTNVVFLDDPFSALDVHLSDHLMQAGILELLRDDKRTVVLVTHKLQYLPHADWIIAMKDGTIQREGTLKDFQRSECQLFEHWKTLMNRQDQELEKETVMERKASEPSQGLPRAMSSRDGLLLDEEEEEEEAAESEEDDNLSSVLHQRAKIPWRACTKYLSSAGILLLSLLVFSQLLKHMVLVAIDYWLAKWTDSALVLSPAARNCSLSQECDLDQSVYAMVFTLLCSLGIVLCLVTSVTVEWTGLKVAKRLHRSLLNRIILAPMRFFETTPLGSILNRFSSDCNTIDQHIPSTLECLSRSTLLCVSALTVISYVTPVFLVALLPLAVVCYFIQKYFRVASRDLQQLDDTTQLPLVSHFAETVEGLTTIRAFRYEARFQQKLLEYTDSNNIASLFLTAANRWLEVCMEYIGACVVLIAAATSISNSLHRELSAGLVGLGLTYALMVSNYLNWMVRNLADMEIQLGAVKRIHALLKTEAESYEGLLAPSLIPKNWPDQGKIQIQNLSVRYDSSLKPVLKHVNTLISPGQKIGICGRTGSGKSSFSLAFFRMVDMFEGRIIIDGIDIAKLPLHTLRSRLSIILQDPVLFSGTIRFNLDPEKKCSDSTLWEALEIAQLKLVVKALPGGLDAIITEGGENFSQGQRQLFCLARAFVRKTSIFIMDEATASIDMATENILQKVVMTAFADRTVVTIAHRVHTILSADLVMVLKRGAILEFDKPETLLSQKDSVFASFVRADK
T1 sequence (P30542 whole entry): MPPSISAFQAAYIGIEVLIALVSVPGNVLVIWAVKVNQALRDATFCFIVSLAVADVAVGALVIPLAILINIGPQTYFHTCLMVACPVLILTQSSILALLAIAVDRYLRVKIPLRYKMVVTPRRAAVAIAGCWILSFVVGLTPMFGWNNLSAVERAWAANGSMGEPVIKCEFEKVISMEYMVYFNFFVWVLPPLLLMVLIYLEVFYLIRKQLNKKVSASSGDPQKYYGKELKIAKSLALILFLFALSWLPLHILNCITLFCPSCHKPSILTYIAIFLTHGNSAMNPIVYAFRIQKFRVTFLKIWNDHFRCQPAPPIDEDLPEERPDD
Sequence of Serotonin (5-Hydroxytryptamine) 5-HT3 (P46098 24-478): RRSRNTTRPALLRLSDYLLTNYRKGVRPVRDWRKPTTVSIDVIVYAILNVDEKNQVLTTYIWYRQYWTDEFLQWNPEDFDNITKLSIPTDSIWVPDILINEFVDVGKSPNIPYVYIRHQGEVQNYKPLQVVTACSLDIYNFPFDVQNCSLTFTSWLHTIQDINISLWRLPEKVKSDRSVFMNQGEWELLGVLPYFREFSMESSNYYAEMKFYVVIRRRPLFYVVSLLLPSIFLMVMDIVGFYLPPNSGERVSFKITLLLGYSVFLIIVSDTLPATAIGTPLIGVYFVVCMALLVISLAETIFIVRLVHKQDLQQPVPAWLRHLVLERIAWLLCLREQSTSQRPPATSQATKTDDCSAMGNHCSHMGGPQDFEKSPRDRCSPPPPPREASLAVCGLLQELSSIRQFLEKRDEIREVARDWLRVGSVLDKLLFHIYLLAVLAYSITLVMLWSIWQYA
Sequence of Adenosine A3 (P0DMS8 whole entry): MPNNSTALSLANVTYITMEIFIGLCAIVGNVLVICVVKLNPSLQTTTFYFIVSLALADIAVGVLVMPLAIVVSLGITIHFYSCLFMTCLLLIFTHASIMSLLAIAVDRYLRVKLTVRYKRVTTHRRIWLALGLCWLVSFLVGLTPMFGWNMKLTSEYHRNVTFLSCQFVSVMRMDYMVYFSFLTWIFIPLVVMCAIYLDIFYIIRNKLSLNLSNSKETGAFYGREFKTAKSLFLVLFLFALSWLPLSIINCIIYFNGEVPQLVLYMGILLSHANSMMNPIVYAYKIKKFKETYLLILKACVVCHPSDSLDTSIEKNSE
T5 sequence (P25105 whole entry): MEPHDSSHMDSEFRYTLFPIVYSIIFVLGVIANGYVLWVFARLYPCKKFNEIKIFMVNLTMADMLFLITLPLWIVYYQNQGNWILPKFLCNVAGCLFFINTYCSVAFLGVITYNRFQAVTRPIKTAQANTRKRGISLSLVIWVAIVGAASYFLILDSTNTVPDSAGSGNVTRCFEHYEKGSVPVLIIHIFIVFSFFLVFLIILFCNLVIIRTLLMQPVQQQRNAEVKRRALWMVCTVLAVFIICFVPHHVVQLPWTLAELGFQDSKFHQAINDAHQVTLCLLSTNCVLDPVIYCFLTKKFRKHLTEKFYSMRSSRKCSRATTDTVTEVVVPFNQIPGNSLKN
T3 sequence (P35462 whole entry): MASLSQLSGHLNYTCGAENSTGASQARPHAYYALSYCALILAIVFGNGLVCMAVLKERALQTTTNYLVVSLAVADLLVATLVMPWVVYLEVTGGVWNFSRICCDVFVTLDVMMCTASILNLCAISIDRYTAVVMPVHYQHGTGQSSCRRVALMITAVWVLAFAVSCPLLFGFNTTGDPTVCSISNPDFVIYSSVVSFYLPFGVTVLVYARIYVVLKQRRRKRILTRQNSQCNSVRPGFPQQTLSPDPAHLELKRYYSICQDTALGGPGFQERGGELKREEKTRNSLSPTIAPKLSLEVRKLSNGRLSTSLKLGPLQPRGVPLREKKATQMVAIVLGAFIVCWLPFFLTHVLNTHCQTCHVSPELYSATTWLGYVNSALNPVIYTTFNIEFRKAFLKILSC
T7 sequence (P25103 whole entry): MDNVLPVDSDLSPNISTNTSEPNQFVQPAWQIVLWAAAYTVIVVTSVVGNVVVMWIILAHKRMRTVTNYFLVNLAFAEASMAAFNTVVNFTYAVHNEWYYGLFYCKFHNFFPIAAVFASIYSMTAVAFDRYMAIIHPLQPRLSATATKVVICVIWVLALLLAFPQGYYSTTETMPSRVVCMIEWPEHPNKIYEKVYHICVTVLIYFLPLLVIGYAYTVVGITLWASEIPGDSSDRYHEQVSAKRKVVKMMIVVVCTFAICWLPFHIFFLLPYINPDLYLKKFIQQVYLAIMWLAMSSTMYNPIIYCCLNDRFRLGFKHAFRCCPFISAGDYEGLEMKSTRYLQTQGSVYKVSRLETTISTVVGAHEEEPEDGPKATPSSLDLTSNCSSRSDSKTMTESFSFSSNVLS
Sequence of Bradykinin B2 (P30411 whole entry): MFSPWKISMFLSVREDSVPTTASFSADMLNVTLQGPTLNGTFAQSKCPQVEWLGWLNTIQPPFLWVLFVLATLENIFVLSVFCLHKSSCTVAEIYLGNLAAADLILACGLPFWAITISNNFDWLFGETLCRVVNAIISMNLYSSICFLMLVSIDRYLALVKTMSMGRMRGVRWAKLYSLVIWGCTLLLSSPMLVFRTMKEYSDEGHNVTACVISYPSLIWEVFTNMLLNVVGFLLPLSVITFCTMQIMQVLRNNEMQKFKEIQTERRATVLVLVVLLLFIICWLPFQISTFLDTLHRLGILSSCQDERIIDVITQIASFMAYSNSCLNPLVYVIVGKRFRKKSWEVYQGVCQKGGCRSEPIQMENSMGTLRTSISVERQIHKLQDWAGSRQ
T4 sequence (P24530 27-442): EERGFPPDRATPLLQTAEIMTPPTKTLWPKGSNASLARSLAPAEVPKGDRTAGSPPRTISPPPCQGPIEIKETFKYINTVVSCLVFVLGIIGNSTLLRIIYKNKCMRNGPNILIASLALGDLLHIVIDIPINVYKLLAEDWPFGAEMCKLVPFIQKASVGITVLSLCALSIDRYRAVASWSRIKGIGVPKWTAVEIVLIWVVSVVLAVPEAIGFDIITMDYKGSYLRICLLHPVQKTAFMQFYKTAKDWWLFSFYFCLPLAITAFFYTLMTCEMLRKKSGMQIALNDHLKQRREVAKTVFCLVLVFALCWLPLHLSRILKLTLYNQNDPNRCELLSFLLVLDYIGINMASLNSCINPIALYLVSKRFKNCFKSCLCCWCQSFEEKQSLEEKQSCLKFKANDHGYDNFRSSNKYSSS
T2 sequence (P15207 607-902): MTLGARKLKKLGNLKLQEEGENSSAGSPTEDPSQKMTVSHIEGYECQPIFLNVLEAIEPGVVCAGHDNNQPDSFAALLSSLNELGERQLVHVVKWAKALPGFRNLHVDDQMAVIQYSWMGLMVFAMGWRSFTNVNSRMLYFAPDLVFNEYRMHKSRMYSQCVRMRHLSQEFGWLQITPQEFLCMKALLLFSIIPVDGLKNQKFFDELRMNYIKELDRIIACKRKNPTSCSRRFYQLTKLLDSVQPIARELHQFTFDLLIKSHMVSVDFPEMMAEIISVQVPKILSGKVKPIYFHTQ

## CCOc1ccc(-c2cc(NC(=O)c3c(F)cccc3F)c(C(=O)O)s2)cc1 [DU011]
[1]
  IC50: 690 ± 780 nM
[2]; CFT073 (K2 serotype)
  reduction in capsular material from CFT073: slightly less than the other serotypes tested
[2]; strains 536, CFT073, DS17, UTI89
  capsular material, alcian blue stained gel: capsule was reduced in each strain
E. coli UTI89 [3]
  serum-mediated killing of UPEC (MTT): further increased serum-mediated killing
[4]; 1× PBS
  Aqueous Solubility: 92.6 µg/mL
[4]; LB medium
  Aqueous Solubility: 68 µg/mL
Adenosine A1
  % Inh.: -17%
Adenosine A3
  % Inh.: -5%
[5]
  % Inh.: 5%
[6]
  % Inh.: -1%
Cannabinoid CB1
  % Inh.: 20%
Dopamine D3
  % Inh.: 6%
Endothelin ETB
  % Inh.: 3%
Imidazoline I2, Central
  % Inh.: -23%
[7]
  % Inh.: -1%
Potassium Channel [KATP]
  % Inh.: 12%
Rolipram
  % Inh.: 3%
Tachykinin NK1
  % Inh.: 7%
E. coli UTI89 [8]; [10]
  body weight: ongoing weight loss among surviving animals
  survival: 50%
E. coli UTI89 [8]; pretreatment of the bacteria and mice
  body weight: recovery of pre-infection weights
E. coli UTI89 [8]; pretreatment of the bacteria and mice, 48 hrs, 10^8 CFU UTI89 i.p.
  survival: 100%
E. coli UTI89 [8]; subcutaneous 100 µL of 1 mg/ml twice daily
  tolerability in mice: without evident side effects
E. coli UTI89 [8]; subcutaneous DU011 and untreated UTI89
  body weight: stabilization of weights at the end of the experiment
E. coli UTI89 [8]; subcutaneous DU011 and untreated UTI89, 48 hrs
  survival: 80%
[9]
  % Inh.: -7%
Bradykinin B2
  % Inh.: 4%
